Usually melting point stands for the temperature of the solid-liquid transition.

`Cc1ccccc1Nc1nc2cc(CC(=O)Nc3ccc(C(CC(=O)O)NC(=O)CCCC(=O)O)cc3)ccc2o1` (stereo not shown) [Example 4, 4-(2-Carboxy-1-{4-[2-(2-o-tolylamino-benzoxazol-5-yl)-acetylamino]-phenyl}-ethylcarbamoyl)-butyric Acid] displayed a melting point of 255.6 to 257.1 °C.

The values are drawn from patent US6562851B2, “Substituted bicyclic compounds” (Aventis Pharma Limited, priority 1999, dated 2003).
